This passage reports EC50 and IC50 results from US10316017B2, “COT modulators and methods of use thereof” (Gilead Sciences, Inc., priority 2015, dated 2019).

Where two headings read alike, the source gives them in different places.

Assay [1] concerns TNFα production in LPS-stimulated human monocytes. The assay can be described thus: Cot Monocyte TNFα Cell Based Assay. As to conditions: Homo sapiens, Monocyte, read-out: EC50 TNF. The method, boiled down: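 Human monocytes (5,000 cells/well) pretreated with compound for 1 hour at 37° C (0.5% DMSO), then stimulated with 50 pg/ml LPS for 4 hours. Total TNFα measured by TR-FRET after overnight antibody incubation at room temp, expressed as percent of control between unstimulated and stimulated cells.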

The target in assay [2] is T1, human Cot catalytic domain (30-397 amino acids) (Homo sapiens, UniProt P41279).
T1 construct: Purified recombinant human Cot catalytic domain (30-397 amino acids) was purchased from Cama Biosciences; purchased Cama Biosciences (so in the source)
T1 sequence (P41279 30-397): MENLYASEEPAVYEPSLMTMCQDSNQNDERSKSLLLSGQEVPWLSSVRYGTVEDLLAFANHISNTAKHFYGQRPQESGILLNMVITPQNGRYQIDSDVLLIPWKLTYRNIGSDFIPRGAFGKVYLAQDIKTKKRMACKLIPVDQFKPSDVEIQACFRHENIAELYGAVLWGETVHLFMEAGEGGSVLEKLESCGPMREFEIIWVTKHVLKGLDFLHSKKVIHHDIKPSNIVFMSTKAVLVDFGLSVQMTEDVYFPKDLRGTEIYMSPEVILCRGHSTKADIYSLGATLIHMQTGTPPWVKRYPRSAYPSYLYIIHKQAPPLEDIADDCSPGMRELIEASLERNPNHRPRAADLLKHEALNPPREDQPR
Description: High Throughput Cot Biochemical Assay (KinEASE TR-FRET). The conditions noted are these: read-out: IC50 HTRF. The method, boiled down:
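Recombinant human Cot catalytic domain (aa 30-397), 5 nM, with 1 μM STK3 peptide and 400 μM ATP in MOPS pH 7.0 buffer with MgOAc, DTT, BSA, NP-40, glycerol, 0.1% DMSO. Phosphorylated XL665-peptide detected by Eu-[…] antibody TR-FRET.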
On the technique in general: TR-FRET usually uses a lanthanide donor and a delayed reading to cut background.

The mark [3] stands for this setting: TNFα in LPS-stimulated human monocytes.
Setting [4] is: Cot biochemical HTRF (KinEASE TR-FRET) assay.
Setting [5] is: Cot KinEASE TR-FRET (HTRF) biochemical assay, 400 μM ATP.
The mark [6] stands for this setting: LPS-stimulated human monocytes, TNFα TR-FRET.
Setting [7] is: Cot KinEASE TR-FRET, 400 μM ATP.

Take `CC(C)(C)N1CCC(n2cc([C@@H](Nc3cc(Cl)c4ncc(C#N)c(NC5CCC5)c4c3)c3ccc(Cl)cc3)nn2)CC1` [Example 702, (S)-6-(((1-(1-(tert-butyl)piperidin-4-yl)-1H-1,2,3-triazol-4-yl)(4-chlorophenyl)methyl)amino)-8-chloro-4-(cyclobutylamino)quinoline-3-carbonitrile]: the EC50 in assay [1] (setting [3]) is 17600 nM. In assay [2] (setting [4]), the IC50 came out at 314 nM.

`[2H][C@](Nc1ccc2nc(F)c(C#N)c(NCC(C)(C)C)c2c1)(c1ccc(F)cc1)c1cn(C2CC2)nn1` [Example 151, (S)-6-(((1-cyclopropyl-1H-1,2,3-triazol-4-yl)(4-fluorophenyl)methyl-d)amino)-2-fluoro-4-(neopentylamino) quinoline-3-carbonitrile]: in assay [1] (setting [3]), the EC50 was 5870 nM. Also, the half-inhibitory concentration (IC50) in assay [2] (setting [5]) is above 10000 nM.

With `Cc1c([C@H](Nc2cc(Cl)c3ncc(C#N)c(NCC(C)(C)C)c3c2)c2cn(C3(C(F)(F)F)CC3)nn2)cccc1-n1ccnc1` [Example 1041, (S)-6-(((3-(1H-imidazol-1-yl)-2-methylphenyl)(1-(1-(trifluoromethyl)cyclopropyl)-1H-1,2,3-triazol-4-yl)methyl)amino)-8-chloro-4-(neopentylamino)quinoline-3-carbonitrile], in assay [1] (setting [6]), the EC50 is 86 nM. In assay [2] (setting [7]), the IC50 worked out at 4 nM.

For the compound `Cc1c(C#N)cccc1[C@H](Nc1cc(C#N)c2ncc(C#N)c(NCC(C)(C)C)c2c1)c1cn(C2(C(F)(F)F)CC2)nn1` [Example 995, (S)-6-(((3-cyano-2-methylphenyl)(1-(1-(trifluoromethyl)cyclopropyl)-1H-1,2,3-triazol-4-yl)methyl)amino)-4-(neopentylamino)quinoline-3,8-dicarbonitrile], the EC50 in assay [1] (setting [6]) amounted to 49 nM. The concentration for half-maximal inhibition (IC50) in assay [2] (setting [7]) was found to be 3 nM.

Turning to `Cc1ccccc1[C@H](Nc1cc(C#N)c2ncc(C#N)c(NCC(C)(C)C)c2c1)c1cn(C2(C(F)(F)F)CC2)nn1` [Example 1067, (S)-4-(neopentylamino)-6-((o-tolyl(1-(1-(trifluoromethyl)cyclopropyl)-1H-1,2,3-triazol-4-yl)methyl)amino)quinoline-3,8-dicarbonitrile], the EC50 in assay [1] (setting [6]) stood at 213 nM. Also, the IC50 in assay [2] (setting [7]) stood at 17 nM.

As for `[2H][C@@](Nc1cc(Cl)c2ncc(C#N)c(NCC(C)(C)C)c2c1)(c1cn(CC2(F)COC2)nn1)c1ccccc1Cl` [Example 103, 8-chloro-6-(((2-chlorophenyl) (1-((3-fluorooxetan-3-yl)methyl)-1H-1,2,3-triazol-4-yl)methyl-d)amino)-4-(neopentylamino) quinoline-3-carbonitrile], in assay [1] (setting [3]), the concentration for a half-maximal effect (EC50) was determined as 522 nM. For the same compound, in assay [2] (setting [5]), the IC50 worked out at 50 nM.

For `[2H][C@](Nc1cc(Cl)c2ncc(C#N)c(NC3CCC3)c2c1)(c1ccc(F)cc1)c1cn(C2CC2)nn1` [Example 215, (S)-8-chloro-4-(cyclobutylamino)-6-(((1-cyclopropyl-1H-1,2,3-triazol-4-yl)(4-fluorophenyl)methyl-d)amino)quinoline-3-carbonitrile], the EC50 in assay [1] (setting [3]) amounted to 2880 nM. In addition, in assay [2] (setting [5]), the IC50 amounted to 119 nM.

On to `CC(C)(C)N1CCC(n2cc([C@@H](Nc3cc(Cl)c4ncc(C#N)c(Nc5ccccc5Cl)c4c3)c3ccc(Cl)cc3)nn2)CC1` [Example 758, (S)-6-(((1-(1-(tert-butyl)piperidin-4-yl)-1H-1,2,3-triazol-4-yl)(4-chlorophenyl)methyl)amino)-8-chloro-4-((2-chlorophenyl)amino)quinoline-3-carbonitrile], for which the EC50 in assay [1] (setting [3]) worked out at 1310 nM. The IC50 in assay [2] (setting [4]) amounted to 97 nM.

In the case of `CC(C)(C)N1CCC(n2cc([C@@H](Nc3cc(Cl)c4ncc(C#N)c(Nc5ccc(OC(F)(F)F)cc5)c4c3)c3ccc(Cl)cc3)nn2)CC1` [Example 759, (S)-6-(((1-(1-(tert-butyl)piperidin-4-yl)-1H-1,2,3-triazol-4-yl)(4-chlorophenyl)methyl)amino)-8-chloro-4-((4-(trifluoromethoxy)phenyl)amino) quinoline-3-carbonitrile], in assay [1] (setting [3]), the EC50 turned out to be 2750 nM. For the same compound, in assay [2] (setting [4]), the IC50 was 2140 nM.

As for `CC(C)(C)CNc1c(C#N)cnc2c(Cl)cc(N[C@@H](c3ccccc3)c3cn(C(F)(F)C(N)=O)nn3)cc12` [Example 970, (S)-2-(4-(((8-chloro-3-cyano-4-(neopentylamino)quinolin-6-yl)amino)(phenyl)methyl)-1H-1,2,3-triazol-1-yl)-2,2-difluoroacetamide], the EC50 in assay [1] (setting [6]) is 202 nM. Besides, the IC50 in assay [2] (setting [7]) amounted to 8 nM.

Turning to `N#CCC[C@@H](Nc1c(C#N)cnc2c(C#N)cc(N[C@H](c3cn(C4CC4)nn3)c3ccccc3Cl)cc12)c1ccccc1` [Example 945, 6-(((S)-(2-chlorophenyl)(1-cyclopropyl-1H-1,2,3-triazol-4-yl)methyl)amino)-4-(((R)-3-cyano-1-phenylpropyl)amino)quinoline-3,8-dicarbonitrile], the EC50 in assay [1] (setting [6]) was found to be 29 nM. For the same compound, the IC50 in assay [2] (setting [7]) was determined as 2 nM.

With `[2H][C@](Nc1cc(Cl)c2ncc(C#N)c(Nc3cccc(Cl)c3OC)c2c1)(c1ccc(F)cc1)c1cn(C2CC2)nn1` [Example 163, (S)-8-chloro-4-((3-chloro-2-methoxyphenyl)amino)-6-(((1-cyclopropyl-1H-1,2,3-triazol-4-yl)(4-fluorophenyl)methyl-d)amino)quinoline-3-carbonitrile], the EC50 in assay [1] (setting [3]) amounted to 170 nM. Also, the IC50 in assay [2] (setting [5]) was 3 nM.

For the compound `N#Cc1cnc2c(Cl)cc(N[C@@H](c3ccc(F)cc3)c3cn(C4CCOCC4)nn3)cc2c1Nc1cnc(F)c(F)c1` [Example 380, (S)-8-chloro-4-((5,6-difluoropyridin-3-yl)amino)-6-(((4-fluorophenyl) (1-(tetrahydro-2H-pyran-4-yl)-1H-1,2,3-triazol-4-yl)methyl)amino)quinoline-3-carbonitrile], the 50% effective concentration (EC50) in assay [1] (setting [3]) was 1280 nM. For the same compound, the IC50 in assay [2] (setting [5]) amounted to 78 nM.

Turning to `CC(C)(C)N1CCC(n2cc([C@@H](Nc3cc(Cl)c4ncc(C#N)c(Nc5ccc(F)cc5)c4c3)c3ccc(Cl)cc3)nn2)CC1` [Example 766, (S)-6-(((1-(1-(tert-butyl)piperidin-4-yl)-1H-1,2,3-triazol-4-yl)(4-chlorophenyl)methyl)amino)-8-chloro-4-((4-fluorophenyl)amino)quinoline-3-carbonitrile], in assay [1] (setting [3]), the half-maximal effective concentration (EC50) was 1770 nM. For the same compound, the IC50 in assay [2] (setting [4]) is 41 nM.

In the case of `CC(C)(C)N1CCC(n2cc([C@@H](Nc3cc(Cl)c4ncc(C#N)c(Nc5ccc(F)c(C#N)c5F)c4c3)c3ccccc3)nn2)CC1` [Example 470, (S)-6-(((1-(1-(tert-butyl)piperidin-4-yl)-1H-1,2,3-triazol-4-yl)(phenyl)methyl)amino)-8-chloro-4-((3-cyano-2,4-difluorophenyl)amino) quinoline-3-carbonitrile], the EC50 in assay [1] (setting [3]) was 608 nM. Moreover, the IC50 in assay [2] (setting [4]) came out at 13 nM.

Consider `Cc1c(-c2cncn2C)cccc1[C@H](Nc1cc(Cl)c2ncc(C#N)c(NCC(C)(C)C)c2c1)c1cn(C2(C(F)F)CC2)nn1` [Example 1122, (S)-8-chloro-6-(((1-(1-(difluoromethyl)cyclopropyl)-1H-1,2,3-triazol-4-yl)(2-methyl-3-(1-methyl-1H-imidazol-5-yl)phenyl)methyl)amino)-4-(neopentylamino)quinoline-3-carbonitrile], for which, in assay [1] (setting [6]), the EC50 came out at 47 nM. In addition, the IC50 in assay [2] (setting [7]) turned out to be 2 nM.

On to `[2H][C@](Nc1cc(Cl)c2ncc(C#N)c(N[C@H](CCC#N)c3ccccc3)c2c1)(c1ccc(F)cc1)c1cn(C2CC2)nn1` [Example 249, 8-chloro-4-(((R)-3-cyano-1-phenylpropyl)amino)-6-(((S)-(1-cyclopropyl-1H-1,2,3-triazol-4-yl)(4-fluorophenyl)methyl-d)amino)quinoline-3-carbonitrile], for which the 50% effective concentration (EC50) in assay [1] (setting [3]) is 21 nM. For the same compound, in assay [2] (setting [5]), the half-maximal inhibitory concentration (IC50) stood at 1 nM.

As to `[2H][C@](Nc1cc(Cl)c2ncc(C#N)c(NC3(C)CC(F)(F)C3)c2c1)(c1ccc(F)cc1)c1cn(C2CC2)nn1` [Example 212, (S)-8-chloro-6-(((1-cyclopropyl-1H-1,2,3-triazol-4-yl)(4-fluorophenyl)methyl-d)amino)-4-((3,3-difluoro-1-methylcyclobutyl)amino) quinoline-3-carbonitrile], the EC50 in assay [1] (setting [3]) is 2180 nM. Further, the IC50 in assay [2] (setting [5]) stood at 169 nM.

Turning to `Cc1c(-c2ccnnc2)cccc1[C@H](Nc1cc(Cl)c2ncc(C#N)c(NCC(C)(C)C)c2c1)c1cn(C2(C(F)F)CC2)nn1` [Example 1123, (S)-8-chloro-6-(((1-(1-(difluoromethyl)cyclopropyl)-1H-1,2,3-triazol-4-yl)(2-methyl-3-(pyridazin-4-yl)phenyl)methyl)amino)-4-(neopentylamino)quinoline-3-carbonitrile], the EC50 in assay [1] (setting [6]) was 42 nM. The IC50 in assay [2] (setting [7]) is 2 nM.

For the compound `CC(C)(C)CNc1c(C#N)cnc2c(C#N)cc(N[C@@H](c3ccc(F)cc3)c3cn(C45CC(C4)C5)nn3)cc12` [Example 1130, (S)-6-(((1-(bicyclo[1.1.1]pentan-1-yl)-1H-1,2,3-triazol-4-yl)(4-fluorophenyl)methyl)amino)-4-(neopentylamino)quinoline-3,8-dicarbonitrile], the EC50 in assay [1] (setting [6]) is 103 nM. The IC50 in assay [2] (setting [7]) is 10 nM.

For `CC(C)(C)CNc1c(C#N)cnc2c(Cl)cc(N[C@H](c3cn(C4(C(F)(F)F)CC4)nn3)c3cccc(C(N)=O)c3F)cc12` [Example 1115, (S)-3-(((8-chloro-3-cyano-4-(neopentylamino)quinolin-6-yl)amino)(1-(1-(trifluoromethyl)cyclopropyl)-1H-1,2,3-triazol-4-yl)methyl)-2-fluorobenzamide], in assay [1] (setting [6]), the EC50 is 176 nM. Also, the IC50 in assay [2] (setting [7]) was 6 nM.

One may read the EC50 as the concentration at which the effect is half-maximal. A word on the IC50: it is the midpoint of a concentration-inhibition curve.
